Laboratory results taken from EP1984353B1, “AURORA KINASE MODULATORS AND METHOD OF USE” (Amgen, Inc, priority 2006, dated 2007).

Experiments:
AuroraB = target: T1, AuroraB (Homo sapiens, UniProt Q96GD4); assay: AuroraB Homogeneous Time Resolved Fluorescent (HTRF) kinase assay; format: biochemical; conditions: average; given as class symbols; read-out: AurB_ _IC50_IP (Avg)
T1 construct: 20 µL of AuroraB FL His; His
In short: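 Full-length His-tagged AuroraB (400 pM) phosphorylates 0.1 µM biotinylated Histone H3 with 23 µM ATP (Km(app)) in HEPES pH 7.5 with Mg/Mn, about 90 min. EDTA-quenched; Eu-anti-phosphoHistoneH3 and SA-APC HTRF, 655/615 nm ratio as phosphorylation.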

AuroraA-TPX2 = target: T2, AuroraA-TPX2 (Homo sapiens, UniProt O14965); assay: AuroraA-TPX2 Homogeneous Time Resolved Fluorescent (HTRF) kinase assay; format: biochemical; conditions: average; given as class symbols; read-out: AurA/TP X2_ IC50_IP (Avg)
T2 construct: 20 µL of AuroraA-TPX2 KD GST; GST
T2 sequence (O14965 133-383 limits assumed): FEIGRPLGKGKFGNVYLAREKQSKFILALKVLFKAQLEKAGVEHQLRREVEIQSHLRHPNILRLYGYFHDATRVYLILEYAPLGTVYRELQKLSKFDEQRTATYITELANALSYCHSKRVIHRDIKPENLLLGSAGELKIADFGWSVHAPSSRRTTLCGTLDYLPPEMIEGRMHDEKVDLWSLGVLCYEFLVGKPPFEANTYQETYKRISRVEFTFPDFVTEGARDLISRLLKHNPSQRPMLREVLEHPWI
T2 sequence (Q9ULW0 1-43 partner limits assumed): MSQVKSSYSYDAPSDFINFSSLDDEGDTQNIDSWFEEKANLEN
In short: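 Aurora-A/TPX2 phosphorylates biotinylated PLK peptide (about 1 µM) with ATP for about 120 min in 60 mM HEPES pH 7.5, 10 mM MgCl2, 2 mM DTT. EDTA quench, overnight equilibration with Eu-anti-phosphoPLK antibody and SA-APC; HTRF read at 615/655 nm after 320 nm excitation.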

[1] = tested on: phosphorylation of Histone H3; assay: HeLa cell 1-hour phospho-histone assay; format: cell-based; conditions: Homo sapiens, HeLa, 1 h, HeLa cells, 1 hour; average; given as class symbols; read-out: pHH3 EC50_IP (Avg)
In short: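 HeLa cells were exposed to serially diluted compounds for 1 hour at 37 °C (0.5% DMSO final), then fixed, permeabilized and immunostained for phospho-histone H3 (Ser10) with Hoechst counterstain. High-content imaging scored the percentage of pHH3-positive cells.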

T1 sequence (Q96GD4 whole entry): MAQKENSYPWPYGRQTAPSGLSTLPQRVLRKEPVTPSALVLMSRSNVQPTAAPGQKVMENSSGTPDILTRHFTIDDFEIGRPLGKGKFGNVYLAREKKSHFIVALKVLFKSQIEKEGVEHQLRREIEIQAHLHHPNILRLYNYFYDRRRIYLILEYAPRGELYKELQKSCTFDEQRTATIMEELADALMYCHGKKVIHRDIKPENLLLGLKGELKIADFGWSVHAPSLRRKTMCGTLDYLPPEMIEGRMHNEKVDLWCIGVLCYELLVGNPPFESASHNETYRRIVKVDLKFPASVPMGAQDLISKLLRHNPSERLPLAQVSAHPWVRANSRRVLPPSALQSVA

In the case of `CCN(CCO)CCCCNc1nccc(-c2cccnc2Oc2ccc(Nc3nnc(-c4ccccc4)c4ccccc34)cc2)n1` [compound 347, 2-(ethyl(4-((4-(2-((4-((4-phenyl-1-phthalazinyl)amino)phenyl)oxy)-3-pyridinyl)-2-pyrimidinyl)amino)butyl)amino)ethanol], the IC50 (AuroraB) is reported as no more than 100 nM, the IC50 (AuroraA-TPX2) is reported as no more than 100 nM and the EC50 [1] is reported as no more than 100 nM.
For `CCN(CCO)CCCCNc1nccc(-c2cccnc2Oc2ccc(Nc3nnc(-c4ccccc4)cc3C)cc2)n1` [compound 348, 2-(ethyl(4-((4-(2-((4-((4-methyl-6-phenyl-3-pyridazinyl)amino)phenyl)oxy)-3-pyridinyl)-2-pyrimidinyl)amino)butyl)amino)ethanol], the IC50 (AuroraB) was no more than 100 nM, the IC50 (AuroraA-TPX2) was no more than 100 nM and the EC50 [1] was 100 to 500 nM.
`CCN(CCO)CCCNc1nccc(-c2cccnc2Oc2ccc(Nc3nnc(-c4ccccc4)c4ccccc34)cc2)n1` [compound 349, 2-(ethyl(3-((4-(2-((4-((4-phenyl-1-phthalazinyl)amino)phenyl)oxy)-3-pyridinyl)-2-pyrimidinyl)amino)propyl)amino)ethanol] showed an IC50 (AuroraB) of no more than 100 nM, an IC50 (AuroraA-TPX2) of 100 to 500 nM and an EC50 [1] of 100 to 500 nM.
`CCN(CCO)CCCNc1nccc(-c2cccnc2Oc2ccc(Nc3nnc(-c4ccccc4)cc3C)cc2)n1` [compound 350, 2-(ethyl(3-((4-(2-((4-((4-methyl-6-phenyl-3-pyridazinyl)amino)phenyl)oxy)-3-pyridinyl)-2-pyrimidinyl)amino)propyl)amino)ethanol] gave an IC50 (AuroraB) of no more than 100 nM, an IC50 (AuroraA-TPX2) of no more than 100 nM and an EC50 [1] of 100 to 500 nM.
In the case of `Cc1cc(-c2ccccc2)nnc1Nc1ccc(Oc2ncccc2-c2ccncc2)cc1` [compound 417, N-(4-(3,4'-bipyridin-2-yloxy)phenyl)-4-methyl-6-phenyl-3-pyridazinamine], the IC50 (AuroraB) is reported as no more than 100 nM, the IC50 (AuroraA-TPX2) is reported as no more than 100 nM and the EC50 [1] is reported as 500 to 2500 nM.
Compound `O=S(=O)(O)CCCNc1nccc(-c2cccnc2Oc2ccc(Nc3nnc(-c4ccccc4)c4ccccc34)cc2)n1` [compound 421, 3-((4-(2-((4-((4-phenyl-1-phthalazinyl)amino)phenyl)oxy)-3-pyridinyl)-2-pyrimidinyl)amino)-1-propanesulfonic acid] has an IC50 (AuroraB) of 100 to 500 nM, an IC50 (AuroraA-TPX2) of 100 to 500 nM and an EC50 [1] of 500 to 2500 nM.
In the case of `Cc1cc(-c2ccccc2)nnc1Nc1ccc(Oc2ncccc2-c2ccnc(NCCCN3CCN(C)CC3)n2)cc1` [compound 422, 4-methyl-N-(4-((3-(2-((3-(4-methyl-1-piperazinyl)propyl)amino)-4-pyrimidinyl)-2-pyridinyl)oxy)phenyl)-6-phenyl-3-pyridazinamine], the IC50 (AuroraB) is reported as no more than 100 nM, the IC50 (AuroraA-TPX2) is reported as no more than 100 nM and the EC50 [1] is reported as 100 to 500 nM.
`Cc1cc(-c2ccccc2)nnc1Nc1ccc(Oc2ncccc2-c2ccnc(NCCCCN(C)C)n2)cc1` [compound 423, N,N-dimethyl-N'-(4-(2-((4-((4-methyl-6-phenyl-3-pyridazinyl)amino)phenyl)oxy)-3-pyridinyl)-2-pyrimidinyl)-1,4-butanediamine] was tested, and the IC50 (AuroraB) was no more than 100 nM, the IC50 (AuroraA-TPX2) was no more than 100 nM and the EC50 [1] was 100 to 500 nM.
With `Cc1cc(-c2ccccc2)nnc1Nc1ccc(Oc2ncccc2-c2ccnc(NCCCN3CCCCC3)n2)cc1` [compound 424, 4-methyl-6-phenyl-N-(4-((3-(2-((3-(1-piperidinyl)propyl)amino)-4-pyrimidinyl)-2-pyridinyl)oxy)phenyl)-3-pyridazinamine] the IC50 (AuroraB) was no more than 100 nM, the IC50 (AuroraA-TPX2) was no more than 100 nM and the EC50 [1] was 100 to 500 nM.
`Cc1cc(-c2ccccc2)nnc1Nc1ccc(Oc2ncccc2-c2ccnc(NCCCN3CCCC3)n2)cc1` [compound 425, 4-methyl-6-phenyl-N-(4-((3-(2-((3-(1-pyrrolidinyl)propyl)amino)-4-pyrimidinyl)-2-pyridinyl)oxy)phenyl)-3-pyridazinamine] gave an IC50 (AuroraB) of no more than 100 nM, an IC50 (AuroraA-TPX2) of no more than 100 nM and an EC50 [1] of 100 to 500 nM.
For `CCN(CC)CCCNc1nccc(-c2cccnc2Oc2ccc(Nc3nnc(-c4ccccc4)cc3C)cc2)n1` [compound 426, N,N-diethyl-N'-(4-(2-((4-((4-methyl-6-phenyl-3-pyridazinyl)amino)phenyl)oxy)-3-pyridinyl)-2-pyrimidinyl)-1,3-propanediamine], the IC50 (AuroraB) was no more than 100 nM, the IC50 (AuroraA-TPX2) was no more than 100 nM and the EC50 [1] was 100 to 500 nM.
`Nc1nccc(-c2cccnc2Oc2ccc(Nc3nnc(-c4ccccc4)cc3C(=O)O)cc2)n1` [compound 433, 3-((4-((3-(2-amino-4-pyrimidinyl)-2-pyridinyl)oxy)phenyl)amino)-6-phenyl-4-pyridazinecarboxylic acid] was tested, and the IC50 (AuroraB) was 500 to 2500 nM, the IC50 (AuroraA-TPX2) was 500 to 2500 nM and the EC50 [1] was 500 to 2500 nM.
